Molecules are shown by their SMILES.

Our source for the EC50 and inhibition values is patent publication EP3597653A1, “CYCLIC INHIBITORS OF HEPATITIS B VIRUS” (IRBM S.P.A., priority 2018, dated 2020).

The first test concerns HBV. The test can be described thus: HBV inhibition assay in HepAD38 cells (extracellular HBV DNA by direct qPCR). The class given is cell-based. The following applies: Hepatitis B virus, 8-point dose-response curve, 96 hours, read-out: HBV inh EC50. From the text:
HepAD38 cell line (Ladner et al., Antimicrob Agents Chemother, 1997, 41, 1715-20) was used for HBV inhibition assays. HepAD38 is a subclone, derived from Hepatoblastoma cell line HepG2 (ATCC® Number: HB-8065™), that expresses HBV genome under the control of a tetracycline-responsive promoter in a TET-OFF system: addition of tetracycline suppresses HBV replication, while its removal switches on the process allowing HBV viral particles release in the cell supernatant. HepAD38 cell line is maintained in DMEM/F12, supplemented with 10% of fetal bovine serum, 1% of glutamine, 1% of penicillin/streptomycin, 0.4 mg/ml G418 and 0,3 ug/ml tetracycline. For the HBV inhibition assay, doxycycline-free medium is used in order to allow virion production.
HBV inhibition activity in vitro was performed in 96 multiwell plates. During the initial (primary) screening compounds were first tested in triplicates at concentrations of 0.1µM, 0.5µM amd 1µM. For selected compounds, an 8-point dose-response curve can be obtained using 1:2 serial dilutions (starting from 2.5 µM, 1.25µM or 0.4 µM, depending on the degree of inhibition observed during the primary screening). From the dose-response curves, half maximal effective concentration (EC50) can be calculated (see also below).
In more detail, compounds - typically dissolved in DMSO stock solutions - are diluted to 2x the final desired concentration in 100 µl of the above medium (without doxycycline) and plated in three replicates in the 96-well plates.
Simultaneously, HepAD38 cells - extensively pre-washed in tetracycline-free medium in order to induce HBV production - are suspended at 2*10^4 cells in 100 µl of tetracycline-free medium and added to each well of the plate, to yield a final assay volume of 200 µl DMSO - used for stock solutions and compounds dilutions - which is always present in the assays at a final concentration of 0.5%.
Plates are then incubated 96 hours at 37°C and then subjected to cell viability assay in order to define compounds cytotoxicity and to extracellular HBV quantification in order to evaluate antiviral activity of compounds. Cytotoxicity is assessed by a commercial fluorescence assay that measures the metabolic activity of cells, directly related to cell viability (Cell Titer Blue, Promega). Anti-HBV activity was evaluated by quantification of extracellular HBV DNA with direct qPCR. In particular, supernatant was collected and centrifuged for cell debris clarification, viral DNA was extracted from virions by addition of lysis buffer (1 mM 1,4-dithiothreitol, 0.2% sodium dodecyl sulphate) and incubated at 95°C for 10 min. Samples were then diluted 1:40 and real time PCR amplification was performed with SYBR green assay (Power SYBR™ Green PCR Master Mix-Thermo Fisher Scientific) and specific HBV primer (HBV-DF:5'-[…]-3' (SEQ ID No. 1), HBV-DR:5'-[…]-3' (SEQ ID No. 2)).
All HBV inhibition or antiviral activity data are typically reported in percent (%) relative to a non-treated reference sample. Excel and Graphpad Prism programs are typically used for data elaboration and EC50 calculation.
On to `O=C(Nc1cc(F)c(F)c(F)c1)c1ccc2c(c1)S(=O)(=O)NC(c1nccs1)N2` (stereo not shown) [Example E49, 3-(thiazol-2-yl)-N-(3,4,5-trifluorophenyl)-3,4-dihydro-2H-benzo[e][1,2,4]thiadiazine-7-carboxamide 1,1-dioxide], for which the EC50 is under 1000 nM.
As for `O=C(Nc1cc(F)c(F)c(F)c1)c1cc2c(cc1F)NCNS2(=O)=O` [Example E71, 6-fluoro-N-(3,4,5-trifluorophenyl)-3,4-dihydro-2H-benzo[e][1,2,4]thiadiazine-7-carboxamide 1,1-dioxide], the EC50 is under 1000 nM.
Still for that read-out and setting: the figure for `O=C(Nc1cc(F)c(F)c(F)c1)c1cc(F)c2c(c1)S(=O)(=O)NCN2` [Example E72, 5-fluoro-N-(3,4,5-trifluorophenyl)-3,4-dihydro-2H-benzo[e][1,2,4]thiadiazine-7-carboxamide 1,1-dioxide] is over 1000 nM.

Staying with this test, now noted: Hepatitis B virus, compound at 0.5 µM, 96 hours, relative to non-treated reference, read-out: Anti HBV Activity (conc µM).
With `O=C(Nc1cc(F)c(F)c(F)c1)c1ccc2c(c1)S(=O)(=O)NC(c1ncccn1)N2` (stereo not shown) [Example E54, 3-(pyrimidin-2-yl)-N-(3,4,5-trifluorophenyl)-3,4-dihydro-2H-benzo[e][1,2,4]thiadiazine-7-carboxamide 1,1-dioxide], the inhibition at 0.5 µM is over 50%.
The same measure, in the same setting: the figure for `CC1(c2cnccn2)Nc2ccc(C(=O)Nc3cc(F)c(F)c(F)c3)cc2S(=O)(=O)N1` (stereo not shown) [Example E55, 3-methyl-3-(pyrazin-2-yl)-N-(3,4,5-trifluorophenyl)-3,4-dihydro-2H-benzo[e][1,2,4]thiadiazine-7-carboxamide 1,1-dioxide] is over 50%.
Same read-out and setting: the figure for `O=C(Nc1cc(F)c(F)c(F)c1)c1ccc2c(c1)S(=O)(=O)NC1(N2)C(=O)Nc2ncccc21` (stereo not shown) [Example E57, 2'-oxo-N-(3,4,5-trifluorophenyl)-1',2'-dihydro-2H,4H-spiro[benzo[e][1,2,4]thiadiazine-3,3'-pyrrolo[2,3-b]pyridine]-7-carboxamide 1,1-dioxide] is over 50%; for `O=C(Nc1cc(F)c(F)c(F)c1)c1ccc2c(c1)S(=O)(=O)N([C@H]1CC[C@H](O)CC1)CN2` [Example E58, trans-2-(4-hydroxycyclohexyl)-N-(3,4,5-trifluorophenyl)-3,4-dihydro-2H-benzo[e][1,2,4]thiadiazine-7-carboxamide 1,1-dioxide] it is under 50%.
As to `O=C(Nc1cc(F)c(F)c(F)c1)c1ccc2c(c1)S(=O)(=O)N([C@H]1CC[C@@H](O)CC1)CN2` [Example E59, cis-2-(4-hydroxycyclohexyl)-N-(3,4,5-trifluorophenyl)-3,4-dihydro-2H-benzo[e][1,2,4]thiadiazine-7-carboxamide 1,1-dioxide], the inhibition at 0.5 µM is under 50%.
Regarding `O=C(Nc1cc(F)c(F)c(F)c1)c1ccc2c(c1)S(=O)(=O)N(C1CC1)CN2` [Example E60, 2-cyclopropyl-N-(3,4,5-trifluorophenyl)-3,4-dihydro-2H-benzo[e][1,2,4]thiadiazine-7-carboxamide 1,1-dioxide], the inhibition at 0.5 µM was under 50%.
For the compound `O=C(Nc1cc(F)c(F)c(F)c1)c1ccc2c(c1)S(=O)(=O)N(C1CCNCC1)CN2` [Example E61, 2-(piperidin-4-yl)-N-(3,4,5-trifluorophenyl)-3,4-dihydro-2H-benzo[e][1,2,4]thiadiazine-7-carboxamide 1,1-dioxide], the inhibition at 0.5 µM is under 50%.
`O=C(Nc1cc(F)c(F)c(F)c1)c1ccc2c(c1)S(=O)(=O)N1CCCC1N2` (stereo not shown) [Example E64, N-(3,4,5-trifluorophenyl)-2,3,10,10a-tetrahydro-1H-benzo[e]pyrrolo[1,2-b][1,2,4]thiadiazine-7-carboxamide 5,5-dioxide]: the inhibition at 0.5 µM is under 50%.
Still for that read-out and setting: the figure for `O=C(Nc1ccc(F)c(Cl)c1)c1ccc2c(c1)S(=O)(=O)NCN2` [Example E65, N-(3-chloro-4-fluorophenyl)-3,4-dihydro-2H-benzo[e][1,2,4]thiadiazine-7-carboxamide 1,1-dioxide] is over 50%.

The same test, now with this note: Hepatitis B virus, compound at 1 µM, 96 hours, relative to non-treated reference, read-out: Anti HBV Activity (conc µM).
Consider `O=C(Nc1ccc(F)c(F)c1)c1ccc2c(c1)S(=O)(=O)NC(c1cccnc1)N2` (stereo not shown) [Example E47, N-(3,4-difluorophenyl)-3-(pyridin-3-yl)-3,4-dihydro-2H-benzo[e][1,2,4]thiadiazine-7-carboxamide 1,1-dioxide], for which the inhibition at 1 µM was over 50%.
Still for that read-out and setting: the figure for `O=C(Nc1cc(F)c(F)c(F)c1)c1ccc2c(c1)S(=O)(=O)NC(c1cccnc1)N2` (stereo not shown) [Example E48, 3-(pyridin-3-yl)-N-(3,4,5-trifluorophenyl)-3,4-dihydro-2H-benzo[e][1,2,4]thiadiazine-7-carboxamide 1,1-dioxide] is over 50%; for `O=C(Nc1ccc(F)c(F)c1)c1ccc2c(c1)S(=O)(=O)NC(c1nccs1)N2` (stereo not shown) [Example E50, N-(3,4-difluorophenyl)-3-(thiazol-2-yl)-3,4-dihydro-2H-benzo[e][1,2,4]thiadiazine-7-carboxamide 1,1-dioxide] it is over 50%; for `O=C(Nc1cc(F)c(F)c(F)c1)c1ccc2c(c1)S(=O)(=O)NC(c1cnc[nH]1)N2` (stereo not shown) [Example E51, 3-(1H-imidazol-5-yl)-N-(3,4,5-trifluorophenyl)-3,4-dihydro-2H-benzo[e][1,2,4]thiadiazine-7-carboxamide 1,1-dioxide] it is under 50%.
Still for that read-out and setting: the figure for `O=C(Nc1cc(F)c(F)c(F)c1)c1ccc2c(c1)S(=O)(=O)NC(c1ccc(Cl)nc1)N2` (stereo not shown) [Example E52, 3-(6-chloropyridin-3-yl)-N-(3,4,5-trifluorophenyl)-3,4-dihydro-2H-benzo[e][1,2,4]thiadiazine-7-carboxamide 1,1-dioxide] is over 50%.
For the compound `CC1(c2ccc(Cl)cn2)Nc2ccc(C(=O)Nc3cc(F)c(F)c(F)c3)cc2S(=O)(=O)N1` (stereo not shown) [Example E53, 3-(5-chloropyridin-2-yl)-3-methyl-N-(3,4,5-trifluorophenyl)-3,4-dihydro-2H-benzo[e][1,2,4]thiadiazine-7-carboxamide 1,1-dioxide], the inhibition at 1 µM is over 50%.
Same read-out and setting: the figure for `O=C(Nc1cc(F)c(F)c(F)c1)c1ccc2c(c1)S(=O)(=O)N(CCO)CN2` [Example E62, 2-(2-hydroxyethyl)-N-(3,4,5-trifluorophenyl)-3,4-dihydro-2H-benzo[e][1,2,4]thiadiazine-7-carboxamide 1,1-dioxide] is under 50%; for `CC1Nc2ccc(C(=O)Nc3cc(F)c(F)c(F)c3)cc2S(=O)(=O)N1CCO` (stereo not shown) [Example E63, 2-(2-hydroxyethyl)-3-methyl-N-(3,4,5-trifluorophenyl)-3,4-dihydro-2H-benzo[e][1,2,4]thiadiazine-7-carboxamide 1,1-dioxide] it is under 50%; for `O=C(Nc1ccc(F)c(F)c1)c1ccc2c(c1)S(=O)(=O)NC=N2` [Example E66, N-(3,4-difluorophenyl)-2H-benzo[e][1,2,4]thiadiazine-7-carboxamide 1,1-dioxide] it is under 50%.
As to `CC1=Nc2ccc(C(=O)Nc3ccc(F)c(F)c3)cc2S(=O)(=O)N1` [Example E67, N-(3,4-difluorophenyl)-3-methyl-2H-benzo[e][1,2,4]thiadiazine-7-carboxamide 1,1-dioxide], the inhibition at 1 µM is under 50%.
On the same count and under the same terms, the figure for `O=C(Nc1cc(F)c(F)c(F)c1)c1cc2c(cc1F)N=CNS2(=O)=O` [Example E68, 6-fluoro-N-(3,4,5-trifluorophenyl)-2H-benzo[e][1,2,4]thiadiazine-7-carboxamide 1,1-dioxide] is under 50%; for `NC1=Nc2ccc(C(=O)Nc3cc(F)c(F)c(F)c3)cc2S(=O)(=O)N1` [Example E69, 3-amino-N-(3,4,5-trifluorophenyl)-2H-benzo[e][1,2,4]thiadiazine-7-carboxamide 1,1-dioxide] it is under 50%; for `CC(=O)NC1=Nc2ccc(C(=O)Nc3cc(F)c(F)c(F)c3)cc2S(=O)(=O)N1` [Example E70, 3-acetamido-N-(3,4,5-trifluorophenyl)-2H-benzo[e][1,2,4]thiadiazine-7-carboxamide 1,1-dioxide] it is under 50%.
